In patent US11844853B2, “Antiperspirant composition” (Conopco, Inc., priority 2018, dated 2023):

Experiment: Percentage flow rate reduction (PFRR) of artificial sweat across a membrane coated with antiperspirant active
Settings: metal deposited 0.004 g/membrane; 12 micron pore size, 50 mm dia.; flow of artificial sweat under 60 cm constant water bar pressure (5.9 kPa)
Method: The above solutions were deposited on a membrane as give below such that the metal deposited was 0.004 g/membrane.
Whatman cellulose nitrate membranes (AE 100, 12 micron nominal pore size, 50 mm dia.) were coated with required volume of desired % w/v or w/w solution of ACH in water. The coated membranes were taken out and kept in air for 30 mins. Then the membranes were put into a closed chamber having 250 ml 10% (v/v) ammoniacal solution inside to generate an ammoniacal blanketing at 25-30° C. temperature, for 4 hrs to neutralize the active. Then the neutralized membranes were kept in air for 6 hrs to remove excess moisture and were used for flow rate assessment. The membranes were fitted in the Millipore filtration set up and flow rate of artificial sweat under 60 cm constant water bar pressure was measured. The selected water bar pressure corresponds to 5.9 kPa, which is reported as the average secretory pressure of the sweat glands (avg.SPSG)
Whatman cellulose nitrate membranes (AE 100, 12 micron nominal pore size, 50 mm dia.) were coated with required volume of desired % w/v or w/w solution of zinc complex in ethanol. The coated membranes were taken out and kept in air for 15 mins. […]
The percentage flow rate reduction was calculated using the equation:

Row | Substance | Avg % PFRR N = 8
1 | Zinc lysine complex [Example C, Zinc lysine complex [Zn (lysine)2. Cl2.2H2O]] | 10%
2 | Aluminium chlorohydrate [Example A] | 66%
